The results in this text go back to US20260272954A1, “ANALGESIC COMPOUNDS COMPRISING CHARGED PARTICLES AND METHOD OF MANUFACTURE THEREOF” (UNIVERSITY OF CONNECTICUT, priority 2023, published 2026).

A value given as a limit tells only on which side of the number the result lay.

A short description of this series: Release of QX-314 into water through dialysis membrane (HPLC). Type of series: physicochemical. The settings on record: dialysis membrane in 20 ml ultrapure water; FIG. 6. As for the experimental part:
High Performance Liquid Chromatography (HPLC) was used to assess the amount of QX-314 remaining in the supernatant after complexing with the NPs. The conditions for HPLC were as follows. The mobile phase consisted of 50 mM phosphate buffer, with 0.16% triethylamine, pH 4.0 buffer:methanol:acetonitrile=60:30:10 vol/vol/vol. The chromatographic conditions were: 30 μL of solution injected, 40° C. constant temperature, flow rate of 0.3 ml/min, and wavelength detection of 210 nm. The column used was a Supelco C18 Column 25 cm×4.6 mm.
The DPPC:PA (mass ratio=1:1) nanoparticles were complexed with QX-314 by incubating 0.5 mg of QX-314 with 1 mL of 0.25% (w/v) lipid solution in a 37° C. room on a gentle shaker. After 1 hour, the formulation was transferred to a dialysis membrane and incubated in 20 ml of ultrapure water. The amount of QX-314 released into the water was measured as a function of time using HPLC as described above. Aqueous solution of QX-314 in dialysis membrane was used as the control. A representative image of positively charged molecule (QX-314) complexed with negatively charged lipid (L-α-phosphatidic acid) is shown below.

On to `CC[N+](CC)(CC)CC(=O)Nc1c(C)cccc1C` [QX-314 solution, QX-314], for which the “burst release of QX-314 (time)” value was no more than 3 h.
